Test results reported in patent US20090117199A1, “Method of treatment of cancer” (priority 1998, published 2009).
Read-outs that look alike come from different tables or passages of the source.

Legend:
[1] = Partitioning coefficient of Rose Bengal, saline/1-octanol, effect of electrolyte concentration; conditions: 0.5 mg/mL RB, approx. 1 day; for Kp: Partitioning coefficient (Kp)
Excerpt: After mixing, the agent was allowed to partition for approximately 1 day. Based on absorbance measurements at 550 nm for the aqueous phase and 564 nm for the organic phase, the percentage of agent in each phase was obtained.

[2] = Critical solubility of Rose Bengal in saline (cloudiness, absorbance at 1000 nm); format: physicochemical
Method: Solutions of RB at different concentrations were prepared at different sodium chloride concentrations. Saline 0.9% USP sodium chloride solution from Hospira, having a pH of 5.5, was used as a stock solution. Solutions having different sodium chloride concentrations were obtained by the addition of calculated amounts of sodium chloride.
The prepared RB/sodium chloride solutions were shaken for 1 hour and absorbance measurements were taken at 1000 nm to determine cloudiness. 1000 nm was chosen as this is in the near infra red where RB has negligible absorbance. Solution cloudiness was difficult to detect visually due to the very dark red color.
The following solutions were evaluated: • 1. 20% RB in saline concentrations of 1.0%, 1.5%, 1.6%, 1.7%, 1.8%, 1.9%, 2.0%, 2.5%, 2.6%, 2.7% and 2.9%; • 2. 15% RB in saline concentrations of […]; • 3. 10% RB in saline concentrations of 2.0%, 2.5%, 3.0% and 3.2%; and • 4. 40%, 45%, 50%, 55% and 60% solutions of RB in 0.9% saline.

[3] = system: A375 human melanoma xenograft tumors; conditions: for #CR + #PR/SD (%): number (percent); for MST ± SEM (mean survival time to 2.0 g tumor): single injection
Method: The effects of a single IL injection of RB into A375 human melanoma xenograft tumors growing in nude mice were evaluated.
Chemoablation studies were conducted using female nu/nu mice (Harlan), 6-9 weeks of age and approximately 20 g at study Day 1.
Each mouse in Chemoablation study groups received a single subcutaneous implantation of the A375 melanoma tumor line. This consisted of implantation of either (1) a 1 mm^3 fragment of tissue in the flank or (2) subcutaneous injection of 100 μL of an A375 cell suspension into the flank. Treatment was initiated when the implanted tumor reached a size of approximately 70 mg (where tumor weight, in mg, was estimated using the formula (w^2×l)/2 in which w is width, and l is length in mm of the tumor).
RB (Aldrich product No. W1843) in isotonic saline; concentrations of 0.1% RB, 1%, RB, 1%, RB, 6% RB and 10% RB (w/v) was studied. Saline was used for the injection control group.
Treatment Plan: Mice were divided into treatment groups on study Day 1. RB treatment groups received a single IL injection of 0.1 mL RB in saline; the injection control group received a single IL injection of 0.1 mL saline. Growth control and sham treatment groups received no injection. All dosing was performed on Study Day 1. Follow up examination of the mice was conducted at regular intervals, and the test terminated on either Study day 65 or Study Day 85.
Each animal was euthanized when its A375 neoplasm reached a size of 2.0 g.
Treatment was assessed for occurrence of complete tumor regression (CR), partial tumor regression (PR) or stable disease (SD). The duration of CR, PR, or SD response was recorded throughout each study.
The Log-Rank test was used to determine the statistical significance of any difference in survival experienced between treatment and control groups. […] SigmaStat 3.0 (SPSS Inc) was used for all statistical analysis. Graphs were prepared using sigmaStat 3.0 or sigma Plot 2000 (SPSS Inc.) ver 6.00.

[4] = Biodistribution (pharmacokinetic and toxicokinetic) after single IL injection in A375 tumor; format: in vivo, nu/nu mice; conditions: single IL injection of 1% or 6% RB
Method: Growth control and sham treatment groups received no injection. All dosing was performed on Study Day 1.
Pharmacokinetic and toxicokinetic data from RB-treated tumors illustrates that a single IL injection of RB leads to localized retention of drug tumor tissue. This is illustrated in FIGS. 4 and 5, which show concentration of RB in tumor tissue, peritumor tissue and blood for time points ranging from 0.5 hr to 360 hr (15 days) post injection.

[5] = system: MCF-7 [ER+] tumors; test: Tumor response to IL 10% RB in saline, report 020110.01B; format: in vivo, BALB/c Nude Mice; conditions: 10% RB IL 25-50 μL/tumor Qd × 1; within 21 days; 4/group
[6] = system: spontaneous breast tumors; test: Tumor response to IL 10% RB in saline, report 020626.01C; format: in vivo, Neu+/+ x (1988A2Kb x Neu+/+) mice; conditions: 10% RB IL 50 μL/tumor Qd × 1
[7] = system: cancer cells; conditions: essentially excluded from normal cells; cited from earlier work
[8] = cited from earlier work
[9] = cited from earlier work; remark: listed apart in the source

In the case of `O=C([O-])c1c(Cl)c(Cl)c(Cl)c(Cl)c1-c1c2cc(I)c(=O)c(I)c-2oc2c(I)c([O-])c(I)cc12.[Na+].[Na+]` [RB, 4,5,6,7-Tetrachloro-2′,4′,5′,7′-tetraiodofluorescein], the “% Partitioning in Octanol” value ([1]; 0.00% saline) is reported as 75.79 ± 1.75%, the “% Partitioning in Octanol” value ([1]; 0.50% saline) is reported as 95.13 ± 1.43% and the “% Partitioning in Octanol” value ([1]; 0.90% saline) is reported as 98.52 ± 0.26%. For the same compound, the “% Partitioning in Octanol” value ([1]; 2.50% saline) was 99.35 ± 0.28%, the Kp ([1]; 0.00% saline) was 3.14 ± 0.29 and the Kp ([1]; 0.50% saline) was 20.8 ± 6.77. It also gave a Kp ([1]; 0.90% saline) of 68.2 ± 4.43, a Kp ([1]; 2.50% saline) of 215 ± 105 and a Kp ([1]; […] saline) of 44.2 ± 5.52. For the same compound, the “% Partitioning in Octanol” value ([1]; […] saline) was 97.77 ± 0.25%, the solution stability ([2]; RB solutions within the therapeutic amounts) was “stable” and the “RB concentration that can be achieved” value ([2]; in 0.9% saline) was “up to 45%”. The tumor growth response ([3]; 0.1% RB (Group C)) was “qualitatively and statistically equivalent to the control groups”, the “#CR” value ([3]; 0.1% RB, 5 mg/kg, IL, N=5) was 0 and the “#PR/SD” value ([3]; 0.1% RB, 5 mg/kg, IL, N=5) was 0. The “#CR + #PR/SD (%)” value ([3]; 0.1% RB, 5 mg/kg, IL, N=5) was 0 (0), the “MST ± SEM (mean survival time to 2.0 g tumor)” value (“MST ± SEM” for short) ([3]; 0.1% RB, 5 mg/kg, IL, N=5) was 27.0 ± 3.0 (5) days and the “clinical response of tumors” value ([3]; 1% RB and higher, large fraction of tumors) was “localized tumor necrosis with rapid eschar formation”. The “#CR” value ([3]; 1% RB, 50 mg/kg, IL, N=12) was 1, the “#PR/SD” value ([3]; 1% RB, 50 mg/kg, IL, N=12) was 1 and the “#CR + #PR/SD (%)” value ([3]; 1% RB, 50 mg/kg, IL, N=12) was 2 (17). For the same compound, the “MST ± SEM” value ([3]; 1% RB, 50 mg/kg, IL, N=12) was 33.1 ± 4.5 (10) days, the “composite response (damage+necrosis/2) and mean severity of necrosis of tumor tissue” value ([3]; 1%, 3% and 6% RB treatment groups) was “elevated” and the “#CR” value ([3]; 3% RB, 150 mg/kg, IL, N=17) was 3. The “#PR/SD” value ([3]; 3% RB, 150 mg/kg, IL, N=17) was 3, the “#CR + #PR/SD (%)” value ([3]; 3% RB, 150 mg/kg, IL, N=17) was 6 (35) and the “MST ± SEM” value ([3]; 3% RB, 150 mg/kg, IL, N=17) was 50.0 ± 7.0 (11) days. The “survival versus growth controls” value ([3]; 6% RB (N=6), increased survival) was “not statistically different”, the “#CR” value ([3]; 6% RB, 300 mg/kg, IL, N=6) was 1 and the “#PR/SD” value ([3]; 6% RB, 300 mg/kg, IL, N=6) was 0. The “#CR + #PR/SD (%)” value ([3]; 6% RB, 300 mg/kg, IL, N=6) was 1 (17), the “MST ± SEM” value ([3]; 6% RB, 300 mg/kg, IL, N=6) was 35.4 ± 6.6 (5) days and the “#CR” value ([3]; 10% RB, 500 mg/kg, IL, N=5) was 1. For the same compound, the “#PR/SD” value ([3]; 10% RB, 500 mg/kg, IL, N=5) was 1, the “#CR + #PR/SD (%)” value ([3]; 10% RB, 500 mg/kg, IL, N=5) was 2 (40) and the “MST ± SEM” value ([3]; 10% RB, 500 mg/kg, IL, N=5) was 52.2 ± 14.9 (3) days. The systemic toxicity ([3]; all tumour treatments, IL) was “well-tolerated”, the “tolerability of intralesional injection” value ([3]; concentrations up to 10% (500 mg/kg)) was “well tolerated by all animals” and the “residual RB in perilesional tissue” value ([3]; terminal sacrifice) was “no residual RB”. For the same compound, the “histology of tumor and peritumor tissue” value ([3]; terminal sacrifice, no dose-related trends) was “minimal perilesional inflammation and damage”, the “persistence of markedly elevated RB levels in tumor samples” value ([4]; post-injection) was “at least 8 days” and the “mean levels of RB in blood” value ([4]; 0.5 hr to 360 hr post injection) was ≤ 3 µg/g. For the same compound, the tumors completely ablated [5] was “[ER+] (4/4), MCF-7 [ER−] (4/4),”, the tumor response [6] was “IL RB ablated spontaneous breast” and the “uptake into cancer cells versus normal cells” value [7] was “preferential uptake into cancer cells”. For the same compound, the “half-life of RB in the murine blood stream” value [8] was “approximately 30 min”, the excretion ([9]; bile) was “rapidly excreted from the bile in unmetabolized form” and the “removal from the blood” value ([9]; blood) was “almost exclusively removed from the blood by the liver”.
